Experiments:
[1] = system: human glioma; reference GAMG; test: Glioma GAMG tumours implanted s.c. in nude mice, Aprepitant alone; assay type: in vivo
Protocol: (§1) Immunocompromised female mice, 5-6 weeks of age were used, nu/nu Balb/c nude mice, provided by Harlan Iberica Barcelona (Spain). They were kept at 24° C. and in sterile conditions with food and water “ad libitum”. They were injected with 2×10^7 tumour cells, corresponding to cancer (human lung cancer, reference HCC-44 supplied by DSMZ) in 200 μl of PBS subcutaneous route. The tumour size was measured and the mice were evaluated for their state of health and weight daily. The mice were randomized in nine groups when the tumours reached a volume of 75 mm^3. One of the groups was treated with 200 μl of placebo (control group) and the eight remaining groups with doses of 10 (group 1), 20 (group 2), 30 (group 3), 40 (group 4), 50 (group 5), 60 (group 6), 70 (group 7) and 80 (group 8) mg per kilogram of weight and day of the NK1 receptor antagonist Aprepitant. 3 animals were treated per group, during 28 days. All the mice were sacrificed at the end of the experiment.
(§2) Immunocompromised female mice, 5-6 weeks of age were used, in the same conditions as explained in example 1. They were injected with 2×10^7 tumour cells, corresponding to a glial cell line tumour of the central nervous system human (human glioma; reference GAMG; supplied by DSMZ) in 200 μl of PBS by subcutaneous route. The tumour size was measured and the mice were evaluated for their state of health and weight daily. The mice were randomized in nine groups when the tumours reached a volume of 75 mm^3. One of the groups was treated with 200 μl of placebo (control group) and the eight remaining groups with doses of 10 (group 1), 20 (group 2), 30 (group 3), 40 (group 4), 50 (group 5), 60 (group 6), 70 (group 7) and 80 (group 8) mg per kilogram of weight and day of the NK1 receptor antagonist Aprepitant. 3 animals were treated per group, during 28 days. All the mice were sacrificed at the end of the experiment.

[2] = system: human melanoma; reference MEL-HO; test: Melanoma MEL-HO tumours implanted s.c. in nude mice, Aprepitant alone; assay type: in vivo
Protocol: as §1
as §2, with “melanoma” for “glial”, “tumour” for “tumour of the central nervous system human”, “melanoma;” for “glioma;”, “MEL-HO;” for “GAMG;”

[3] = Aprepitant 10 mg/kg/day, 7 days
[4] = Aprepitant 10 mg/kg/day, 14 days
[5] = Aprepitant 10 mg/kg/day, 21 days
[6] = Aprepitant 10 mg/kg/day, 28 days
[7] = Aprepitant 20 mg/kg/day, 7 days
[8] = Aprepitant 20 mg/kg/day, 14 days
[9] = Aprepitant 20 mg/kg/day, 21 days
[10] = Aprepitant 20 mg/kg/day, 28 days
[11] = Aprepitant 30 mg/kg/day, 7 days
[12] = Aprepitant 30 mg/kg/day, 14 days
[13] = Aprepitant 30 mg/kg/day, 21 days
[14] = Aprepitant 30 mg/kg/day, 28 days
[15] = Aprepitant 40 mg/kg/day, 7 days
[16] = Aprepitant 40 mg/kg/day, 14 days
[17] = Aprepitant 40 mg/kg/day, 21 days
[18] = Aprepitant 40 mg/kg/day, 28 days
[19] = Aprepitant 50 mg/kg/day, 7 days
[20] = Aprepitant 50 mg/kg/day, 14 days
[21] = Aprepitant 50 mg/kg/day, 21 days
[22] = Aprepitant 50 mg/kg/day, 28 days
[23] = Aprepitant 60 mg/kg/day, 7 days
[24] = Aprepitant 60 mg/kg/day, 14 days
[25] = Aprepitant 60 mg/kg/day, 21 days
[26] = Aprepitant 60 mg/kg/day, 28 days
[27] = Aprepitant 70 mg/kg/day, 7 days
[28] = Aprepitant 70 mg/kg/day, 14 days
[29] = Aprepitant 70 mg/kg/day, 21 days
[30] = Aprepitant 70 mg/kg/day, 28 days
[31] = Aprepitant 80 mg/kg/day, 7 days
[32] = Aprepitant 80 mg/kg/day, 14 days
[33] = Aprepitant 80 mg/kg/day, 21 days
[34] = Aprepitant 80 mg/kg/day, 28 days

SMILES: C[C@@H](O[C@H]1OCCN(Cc2n[nH]c(=O)[nH]2)[C@H]1c1ccc(F)cc1)c1cc(C(F)(F)F)cc(C(F)(F)F)c1 [Aprepitant]
- Tumour size (mean volume of the tumour) [1, 3]: 205 ± 3 cubic millimeters
- Tumour size (mean volume of the tumour) [1, 4]: 185 ± 6 cubic millimeters
- Tumour size (mean volume of the tumour) [1, 5]: 170 ± 7 cubic millimeters
- Tumour size (mean volume of the tumour) [1, 6]: 155 ± 4 cubic millimeters
- Tumour size (mean volume of the tumour) [1, 7]: 190 ± 4 cubic millimeters
- Tumour size (mean volume of the tumour) [1, 8]: 160 ± 7 cubic millimeters
- Tumour size (mean volume of the tumour) [1, 9]: 150 ± 6 cubic millimeters
- Tumour size (mean volume of the tumour) [1, 10]: 125 ± 5 cubic millimeters
- Tumour size (mean volume of the tumour) [1, 11]: 160 ± 4 cubic millimeters
- Tumour size (mean volume of the tumour) [1, 12]: 145 ± 7 cubic millimeters
- Tumour size (mean volume of the tumour) [1, 13]: 120 ± 6 cubic millimeters
- Tumour size (mean volume of the tumour) [1, 14]: 105 ± 4 cubic millimeters
- Tumour size (mean volume of the tumour) [1, 15]: 155 ± 6 cubic millimeters
- Tumour size (mean volume of the tumour) [1, 16]: 125 ± 5 cubic millimeters
- Tumour size (mean volume of the tumour) [1, 17]: 110 ± 5 cubic millimeters
- Tumour size (mean volume of the tumour) [1, 18]: 90 ± 9 cubic millimeters
- Tumour size (mean volume of the tumour) [1, 19]: 125 ± 5 cubic millimeters
- Tumour size (mean volume of the tumour) [1, 20]: 110 ± 5 cubic millimeters
- Tumour size (mean volume of the tumour) [1, 21]: 100 ± 5 cubic millimeters
- Tumour size (mean volume of the tumour) [1, 22]: 80 ± 8 cubic millimeters
- Tumour size (mean volume of the tumour) [1, 23]: 95 ± 5 cubic millimeters
- Tumour size (mean volume of the tumour) [1, 24]: 85 ± 6 cubic millimeters
- Tumour size (mean volume of the tumour) [1, 25]: 60 ± 6 cubic millimeters
- Tumour size (mean volume of the tumour) [1, 26]: 50 ± 7 cubic millimeters
- Tumour size (mean volume of the tumour) [1, 27]: 75 ± 6 cubic millimeters
- Tumour size (mean volume of the tumour) [1, 28]: 60 ± 5 cubic millimeters
- Tumour size (mean volume of the tumour) [1, 29]: 55 ± 5 cubic millimeters
- Tumour size (mean volume of the tumour) [1, 30]: 35 ± 8 cubic millimeters
- Tumour size (mean volume of the tumour) [1, 31]: 60 ± 3 cubic millimeters
- Tumour size (mean volume of the tumour) [1, 32]: 45 ± 6 cubic millimeters
- Tumour size (mean volume of the tumour) [1, 33]: 25 ± 7 cubic millimeters
- Tumour size (mean volume of the tumour) [1, 34]: 15 ± 10 cubic millimeters
- Tumour size (mean volume of the tumour) [2, 3]: 235 ± 3 cubic millimeters
- Tumour size (mean volume of the tumour) [2, 4]: 215 ± 4 cubic millimeters
- Tumour size (mean volume of the tumour) [2, 5]: 190 ± 4 cubic millimeters
- Tumour size (mean volume of the tumour) [2, 6]: 170 ± 6 cubic millimeters
- Tumour size (mean volume of the tumour) [2, 7]: 210 ± 6 cubic millimeters
- Tumour size (mean volume of the tumour) [2, 8]: 200 ± 5 cubic millimeters
- Tumour size (mean volume of the tumour) [2, 9]: 175 ± 5 cubic millimeters
- Tumour size (mean volume of the tumour) [2, 10]: 150 ± 7 cubic millimeters
- Tumour size (mean volume of the tumour) [2, 11]: 195 ± 7 cubic millimeters
- Tumour size (mean volume of the tumour) [2, 12]: 185 ± 6 cubic millimeters
- Tumour size (mean volume of the tumour) [2, 13]: 160 ± 6 cubic millimeters
- Tumour size (mean volume of the tumour) [2, 14]: 140 ± 4 cubic millimeters
- Tumour size (mean volume of the tumour) [2, 15]: 175 ± 8 cubic millimeters
- Tumour size (mean volume of the tumour) [2, 16]: 160 ± 8 cubic millimeters
- Tumour size (mean volume of the tumour) [2, 17]: 140 ± 4 cubic millimeters
- Tumour size (mean volume of the tumour) [2, 18]: 110 ± 6 cubic millimeters
- Tumour size (mean volume of the tumour) [2, 19]: 160 ± 5 cubic millimeters
- Tumour size (mean volume of the tumour) [2, 20]: 150 ± 4 cubic millimeters
- Tumour size (mean volume of the tumour) [2, 21]: 125 ± 5 cubic millimeters
- Tumour size (mean volume of the tumour) [2, 22]: 100 ± 7 cubic millimeters
- Tumour size (mean volume of the tumour) [2, 23]: 145 ± 6 cubic millimeters
- Tumour size (mean volume of the tumour) [2, 24]: 135 ± 5 cubic millimeters
- Tumour size (mean volume of the tumour) [2, 25]: 115 ± 6 cubic millimeters
- Tumour size (mean volume of the tumour) [2, 26]: 85 ± 4 cubic millimeters
- Tumour size (mean volume of the tumour) [2, 27]: 125 ± 4 cubic millimeters
- Tumour size (mean volume of the tumour) [2, 28]: 105 ± 6 cubic millimeters
- Tumour size (mean volume of the tumour) [2, 29]: 90 ± 4 cubic millimeters
- Tumour size (mean volume of the tumour) [2, 30]: 80 ± 7 cubic millimeters
- Tumour size (mean volume of the tumour) [2, 31]: 100 ± 6 cubic millimeters
- Tumour size (mean volume of the tumour) [2, 32]: 95 ± 7 cubic millimeters
- Tumour size (mean volume of the tumour) [2, 33]: 65 ± 7 cubic millimeters
- Tumour size (mean volume of the tumour) [2, 34]: 65 ± 9 cubic millimeters

Reference: patent US10463670B2, “Use of non-peptide NK1 antagonists in a predetermined dose for the treatment of cancer” (SERVICIO ANDALUZ DE SALUD, priority 2013, dated 2019)
